Assay results: PMC3426542, “A Novel Virulence Strategy for Pseudomonas aeruginosa Mediated by an Autotransporter with Arginine-Specific Aminopeptidase Activity” (PLoS Pathogens, 2012)

Molecular target: T1, SGAP (Streptomyces griseus, UniProt P80561)
T1 construct: gene SGR_5809; commercial preparation (Sigma)
Experiment: 4-nitroanilide release at […] nm, commercial enzyme
Assay type: biochemical
Conditions: 1 mM substrate, MMP, 37 °C

T1 sequence (P80561 46-329): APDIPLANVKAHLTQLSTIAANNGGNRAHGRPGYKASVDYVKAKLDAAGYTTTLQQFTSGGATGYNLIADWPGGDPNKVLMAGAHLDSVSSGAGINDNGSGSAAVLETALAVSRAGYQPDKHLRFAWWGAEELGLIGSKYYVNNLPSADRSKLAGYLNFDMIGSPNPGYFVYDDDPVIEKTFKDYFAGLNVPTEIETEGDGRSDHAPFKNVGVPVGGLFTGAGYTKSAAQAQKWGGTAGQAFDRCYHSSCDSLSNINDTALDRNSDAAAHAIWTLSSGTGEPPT

Compound | 4-nitroanilide release at 405 nm, commercial enzyme
CC(C)C[C@H](N)C(=O)Nc1ccc([N+](=O)[O-])cc1 [leucine-p-nitroanilide] | SGAP clearly released maximal levels of 4-nitroanilide from leucine-p-nitroanilide and methionine-p-nitroanilide
CSCC[C@H](N)C(=O)Nc1ccc([N+](=O)[O-])cc1 [methionine-p-nitroanilide] | SGAP clearly released maximal levels of 4-nitroanilide from leucine-p-nitroanilide and methionine-p-nitroanilide
